Laboratory results reported in US10633419B2, “Immunomodulators” (BRISTOL-MYERS SQUIBB COMPANY, priority 2014, dated 2020).
pIC50: −log10 of the molar value. Positions of bridges follow the written chain, without caps; N, C: chain ends. Non-standard residues stand in square brackets, D forms with d. Residues, ends and D or L forms follow the SMILES beside them. *: point of attachment. Dap(Nα-HOOC(CH2)16CO)OH = O=C(O)CCCCCCCCCCCCCCCCC(=O)N[C@@H](CN*)C(=O)O; Trp(1-CH2COOH) = N[C@@H](Cc1cn(CC(=O)O)c2ccccc12)C(=O)O; X14 = O=C(O)CCCCCCCCCCNC(=O)CCC(=O)NCCCOCCOCCOCCCN*; NH(CH2)14COOH = O=C(O)CCCCCCCCCCCCCCN*; d(cisHyp) = O=C(O)[C@H]1C[C@@H](O)CN1; PEG6 = NCCOCCOCCOCCOCCOCCOCCC(=O)O; Hyp = O=C(O)[C@@H]1C[C@@H](O)CN1; Undecanoyl = CCCCCCCCCCC(=O)*; NMeNle = CCCC[C@H](NC)C(=O)O; NMeA = CN[C@@H](C)C(=O)O; Aun = NCCCCCCCCCCC(=O)O; Dab = NCC[C@H](N)C(=O)O; Dap = NC[C@H](N)C(=O)O

biological target: T1, PD-L1 (Homo sapiens, UniProt Q9NZQ7); test: PD-1/PD-L1 Homogenous Time-Resolved Fluorescence (HTRF) binding assay (PD-1-Ig/PD-L1-His); conditions: inhibition of PD-1-Ig binding to PD-L1-TVMV-His; value given as range class; read-out: HTRF IC50
T1 construct: hPDL1(19-239)-TVMV-His; made in house; host or cells: HEK293T
T1 sequence (Q9NZQ7 with tags, fused parts or gaps): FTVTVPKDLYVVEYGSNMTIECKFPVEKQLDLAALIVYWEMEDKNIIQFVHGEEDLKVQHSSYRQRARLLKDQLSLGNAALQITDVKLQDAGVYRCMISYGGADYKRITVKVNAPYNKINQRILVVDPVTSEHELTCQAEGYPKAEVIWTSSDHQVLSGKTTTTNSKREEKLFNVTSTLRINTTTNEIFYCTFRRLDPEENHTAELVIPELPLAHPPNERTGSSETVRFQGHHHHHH
Summary of the method: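 HTRF competition in dPBS with 0.1% BSA and 0.05% Tween-20: 20 nM PD-1-Ig added after 15 min compound pre-incubation with 10 nM PD-L1-His, then another 15 min. Signal (665/620 nm) after 30 min with APC anti-His (20 nM) and Eu anti-Ig (1 nM).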

pIC50	Compound
7.00 to 8.00	CCCCCCCCCCC(=O)NCCCC[C@H](NC(=O)CNC(=O)[C@@H]1CSCC(=O)N[C@@H](Cc2ccc(O)cc2)C(=O)N(C)[C@@H](C)C(=O)N[C@@H](CC(N)=O)C(=O)N2CCC[C@H]2C(=O)N[C@@H](Cc2cnc[nH]2)C(=O)N[C@@H](CCC(=O)O)C(=O)N2C[C@H](O)C[C@H]2C(=O)N[C@@H](Cc2c[nH]c3ccccc23)C(=O)N[C@@H](CCN)C(=O)N[C@@H](Cc2c[nH]c3ccccc23)C(=O)N(C)[C@@H](CCCC)C(=O)N(C)[C@@H](CCCC)C(=O)N[C@@H](CCN)C(=O)N1)C(N)=O [Example 11007] ({CH2CO}-Y[NMeA]NPHE[Hyp]W[Dab]W[NMeNle][NMeNle][Dab]CGK(Undecanoyl)-NH2; thioether N-14)
7.00 to 8.00	CCCC[C@H]1C(=O)N(C)[C@@H](CCCC)C(=O)N[C@@H](CC(C)C)C(=O)N[C@H](C(=O)NCCOCCOCCOCCOCCOCCOCCC(=O)NC[C@H](NC(=O)CCCCCCCCCCCCCCCCC(=O)O)C(=O)O)CSCC(=O)N[C@@H](Cc2ccc(O)cc2)C(=O)N(C)[C@@H](C)C(=O)N[C@@H](CC(N)=O)C(=O)N2CCC[C@H]2C(=O)N[C@@H](CN)C(=O)N[C@@H](CC(C)C)C(=O)N2C[C@H](O)C[C@H]2C(=O)N[C@@H](Cc2c[nH]c3ccccc23)C(=O)N[C@@H](CCN)C(=O)N[C@@H](Cc2cn(CC(=O)O)c3ccccc23)C(=O)N1C [Example 11180] ({CH2CO}-Y[NMeA]NP[Dap]L[Hyp]W[Dab][Trp(1-CH2COOH)][NMeNle][NMeNle]LC[PEG6]-{Dap(Nα-HOOC(CH2)16CO)OH}; thioether N-14)
7.00 to 8.00	CCCC[C@H]1C(=O)N(C)[C@@H](CCCC)C(=O)N[C@@H](CC(C)C)C(=O)N[C@H](C(=O)NCCCCCCCCCCCCCCC(=O)O)CSCC(=O)N[C@@H](Cc2ccc(O)cc2)C(=O)N(C)[C@@H](C)C(=O)N[C@@H](CC(N)=O)C(=O)N2CCC[C@H]2C(=O)N[C@@H](CN)C(=O)N[C@@H](CC(C)C)C(=O)N2C[C@H](O)C[C@H]2C(=O)N[C@@H](Cc2c[nH]c3ccccc23)C(=O)N[C@@H](CCN)C(=O)N[C@@H](Cc2cn(CC(=O)O)c3ccccc23)C(=O)N1C [Example 11196] ({CH2CO}-Y[NMeA]NP[Dap]L[Hyp]W[Dab][Trp(1-CH2COOH)][NMeNle][NMeNle]LC-{NH(CH2)14COOH}; thioether N-14)
7.00 to 8.00	CCCC[C@H]1C(=O)N(C)[C@@H](CCCC)C(=O)N[C@@H](CC(C)C)C(=O)N[C@H](C(=O)NCCCCCCCCCCC(=O)O)CSCC(=O)N[C@@H](Cc2ccc(O)cc2)C(=O)N(C)[C@@H](C)C(=O)N[C@@H](CC(N)=O)C(=O)N2CCC[C@H]2C(=O)N[C@@H](CO)C(=O)N[C@@H](CCC(N)=O)C(=O)N2C[C@H](O)C[C@H]2C(=O)N[C@@H](Cc2c[nH]c3ccccc23)C(=O)N[C@@H](CO)C(=O)N[C@@H](Cc2cn(CC(=O)O)c3ccccc23)C(=O)N1C [Example 11082] ({CH2CO}-Y[NMeA]NPSQ[Hyp]WS[Trp(1-CH2COOH)][NMeNle][NMeNle]LC[Aun]-OH; thioether N-14)
8.00 to 9.52	CCCC[C@H]1C(=O)N(C)[C@@H](CCCC)C(=O)N[C@@H](CCC(=O)O)C(=O)N[C@H](C(=O)NCCCOCCOCCOCCCNC(=O)CCC(=O)NCCCCCCCCCCC(=O)O)CSCC(=O)N[C@@H](Cc2ccc(O)cc2)C(=O)N(C)[C@@H](C)C(=O)N[C@@H](CC(=O)O)C(=O)N2CCC[C@H]2C(=O)N[C@@H](CN)C(=O)N[C@@H](CC(C)C)C(=O)N2C[C@H](O)C[C@@H]2C(=O)N[C@@H](Cc2c[nH]c3ccccc23)C(=O)N[C@@H](CCN)C(=O)N[C@@H](Cc2cn(CC(=O)O)c3ccccc23)C(=O)N1C [Example 11145] ({CH2CO}-Y[NMeA]DP[Dap]L[d(cisHyp)]W[Dab][Trp(1-CH2COOH)][NMeNle][NMeNle]EC-X14; thioether N-14)
